From ChEMBL document CHEMBL1140127, “Enantiomeric propanolamines as selective N-methyl-D-aspartate 2B receptor antagonists” (J Med Chem, 2008) come the findings set out here.

By IC50 is commonly meant the midpoint of a concentration-inhibition curve.

The target in this experiment is Glutamate NMDA receptor; Grin1/Grin2b (Rattus norvegicus, UniProt P35439+Q00960). The experiment can be described thus: Inhibition of rat recombinant NR1/NR2B receptor expressed in Xenopus oocytes assessed as inhibition of glutamate and glycine-induced evoked current by two electrode voltage clamp method. It counts as cell-based, Oocyte. For orientation: Two-electrode voltage clamp is typically applied to oocytes expressing channels or transporters.
Glutamate NMDA receptor; Grin1/Grin2b, sequence (Q00960 whole entry, other chains not shown): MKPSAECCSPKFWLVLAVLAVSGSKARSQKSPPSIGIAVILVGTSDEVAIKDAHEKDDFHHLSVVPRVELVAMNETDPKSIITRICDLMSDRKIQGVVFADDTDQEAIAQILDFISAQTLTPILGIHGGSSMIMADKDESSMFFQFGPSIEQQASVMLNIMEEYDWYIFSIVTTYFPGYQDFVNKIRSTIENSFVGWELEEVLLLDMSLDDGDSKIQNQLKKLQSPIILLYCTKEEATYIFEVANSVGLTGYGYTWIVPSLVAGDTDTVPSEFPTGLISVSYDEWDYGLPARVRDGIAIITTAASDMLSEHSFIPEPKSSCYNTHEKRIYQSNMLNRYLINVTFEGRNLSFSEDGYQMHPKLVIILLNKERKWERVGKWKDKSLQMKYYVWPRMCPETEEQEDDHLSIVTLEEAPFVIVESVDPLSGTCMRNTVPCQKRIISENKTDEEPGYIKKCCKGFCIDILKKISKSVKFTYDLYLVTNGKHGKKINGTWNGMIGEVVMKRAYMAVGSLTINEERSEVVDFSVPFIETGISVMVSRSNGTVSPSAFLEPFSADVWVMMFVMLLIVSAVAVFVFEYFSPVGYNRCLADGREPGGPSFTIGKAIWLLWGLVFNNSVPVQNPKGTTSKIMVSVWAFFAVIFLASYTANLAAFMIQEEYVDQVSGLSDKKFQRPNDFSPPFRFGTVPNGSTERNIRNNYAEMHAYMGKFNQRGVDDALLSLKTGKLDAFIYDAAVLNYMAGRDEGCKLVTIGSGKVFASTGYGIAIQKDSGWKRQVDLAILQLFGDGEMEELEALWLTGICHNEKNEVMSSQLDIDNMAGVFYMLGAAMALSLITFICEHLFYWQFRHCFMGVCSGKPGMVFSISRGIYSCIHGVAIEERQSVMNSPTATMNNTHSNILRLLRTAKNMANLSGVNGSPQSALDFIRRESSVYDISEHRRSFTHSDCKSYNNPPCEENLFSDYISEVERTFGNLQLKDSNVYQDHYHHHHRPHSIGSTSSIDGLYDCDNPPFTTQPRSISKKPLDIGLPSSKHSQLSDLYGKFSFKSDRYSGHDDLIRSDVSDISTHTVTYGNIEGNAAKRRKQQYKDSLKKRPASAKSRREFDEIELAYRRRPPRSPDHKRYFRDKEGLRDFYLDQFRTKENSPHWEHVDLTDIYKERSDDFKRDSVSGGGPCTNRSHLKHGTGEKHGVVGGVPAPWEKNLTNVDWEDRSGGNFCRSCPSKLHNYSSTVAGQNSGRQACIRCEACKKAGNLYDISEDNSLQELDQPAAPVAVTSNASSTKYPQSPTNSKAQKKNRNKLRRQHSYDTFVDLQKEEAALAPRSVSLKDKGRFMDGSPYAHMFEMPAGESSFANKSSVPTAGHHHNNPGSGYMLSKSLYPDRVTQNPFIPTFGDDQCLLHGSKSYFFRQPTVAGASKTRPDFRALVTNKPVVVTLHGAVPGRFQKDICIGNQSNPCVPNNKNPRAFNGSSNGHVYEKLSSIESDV
With `O=C(Nc1ccc(OC[C@@H](O)CNCCc2ccc(Cl)c(Cl)c2)cc1)C(Cl)Cl`, the 50% inhibitory concentration (IC50) is 12.8 µM. The value for `CS(=O)(=O)Nc1ccc(OC[C@@H](O)CNCCc2cccc(F)c2)cc1` was 0.853 µM.

Consider `CS(=O)(=O)Nc1ccc(OC[C@@H](O)CNCCc2ccc(O)c(O)c2)cc1`, for which the IC50 is greater than 100 µM. On to `CS(=O)(=O)Nc1ccc(OC[C@@H](O)CN(CCc2ccccc2)CCc2ccc(Cl)c(Cl)c2)cc1`, for which the concentration for half-maximal inhibition (IC50) came to 3.51 µM. Take `CS(=O)(=O)Nc1ccc(OC[C@@H](O)CNCCc2ccc(Cl)c(Cl)c2)cc1F`: the IC50 turned out to be 0.427 µM.

As to `CS(=O)(=O)Nc1ccc(OC[C@@H](O)CN(CCc2ccc(Cl)c(Cl)c2)Cc2cccc3c2OCO3)cc1`, the IC50 was 5.01 µM.

Consider `CS(=O)(=O)Nc1ccc(OC[C@@H](O)CNCCc2ccc3c(c2)OCO3)cc1`, for which the concentration for half-maximal inhibition (IC50) stood at 0.951 µM. The value for `CS(=O)(=O)Nc1ccc(OC[C@@H](O)CN(CCc2ccc(Cl)c(Cl)c2)CC2CCCCC2)cc1` was 9.84 µM; that for `CC(C)N(CCc1ccc(Cl)c(Cl)c1)C[C@H](O)COc1ccc(NS(C)(=O)=O)cc1` was 0.603 µM. Consider `CS(=O)(=O)Nc1ccc(OC[C@@H](O)CNCCc2ccc(Cl)c(Cl)c2)c(F)c1`, for which the half-maximal inhibitory concentration (IC50) is 0.072 µM. As to `CS(=O)(=O)Nc1ccc(OC[C@@H](O)CN(CCc2ccc(Cl)c(Cl)c2)Cc2cccc(F)c2)cc1`, the IC50 stood at 0.249 µM. Take `CS(=O)(=O)Nc1ccc(OC[C@@H](O)CNCCc2ccc(F)c(Cl)c2)cc1`: the half-maximal inhibitory concentration (IC50) was 0.397 µM. As to `CS(=O)(=O)Nc1ccc(OC[C@@H](O)CN(CCc2ccc(Cl)c(Cl)c2)Cc2ccc(O)cc2)cc1`, the IC50 was determined as 0.113 µM.

Take `CS(=O)(=O)Nc1ccc(OC[C@@H](O)CNCCc2cc(O)cc(O)c2)cc1`: the IC50 is greater than 100 µM.

For the compound `CS(=O)(=O)Nc1ccc(OC[C@@H](O)CN(CCc2ccc(Cl)c(Cl)c2)Cc2ccccc2[N+](=O)[O-])cc1`, the IC50 turned out to be 0.589 µM. With `CS(=O)(=O)Nc1ccc(OC[C@@H](O)CNCCc2ccccc2O)cc1`, the IC50 amounted to 2 µM. The value for `CC(=O)Oc1ccccc1CN(CCc1ccc(Cl)c(Cl)c1)C[C@H](O)COc1ccc(NS(C)(=O)=O)cc1` was 0.5 µM; that for `CCCCS(=O)(=O)Nc1ccc(OC[C@@H](O)CNCCc2ccc(Cl)c(Cl)c2)cc1` was 6.79 µM.

For `CCCCCN(CCc1ccc(Cl)c(Cl)c1)C[C@H](O)COc1ccc(NS(C)(=O)=O)cc1`, the IC50 amounted to 0.659 µM.

Regarding `COc1cccc(OC)c1CN(CCc1ccc(Cl)c(Cl)c1)C[C@H](O)COc1ccc(NS(C)(=O)=O)cc1`, the IC50 is 11.9 µM.

With `CS(=O)(=O)Nc1ccc(OC[C@@H](O)CN(CCc2ccc(Cl)c(Cl)c2)Cc2ccccc2C(F)(F)F)cc1`, the IC50 amounted to 3.72 µM.

For the compound `CN(c1ccc(OC[C@@H](O)CNCCc2ccc(Cl)c(Cl)c2)cc1)S(C)(=O)=O`, the IC50 was found to be 9.91 µM. For `CS(=O)(=O)Nc1ccc(OC[C@@H](O)CNCCc2ccc(O)cc2)cc1`, the IC50 is 7.24 µM. Consider `CS(=O)(=O)Nc1ccc(OC[C@@H](O)CN(CCc2ccc(Cl)c(Cl)c2)Cc2nccs2)cc1`, for which the half-maximal inhibitory concentration (IC50) turned out to be 3.58 µM. `CC(=O)Nc1ccc(OC[C@@H](O)CNCCc2ccc(Cl)c(Cl)c2)cc1`: the IC50 stood at 4.37 µM. `CS(=O)(=O)Nc1ccc(OC[C@@H](O)CN(CCc2ccc(Cl)c(Cl)c2)Cc2ccc(O)cc2O)cc1`: the IC50 amounted to 0.146 µM.

Regarding `CS(=O)(=O)Nc1ccc(OC[C@@H](O)CN(CCc2ccc(Cl)c(Cl)c2)Cc2ccccc2Br)cc1`, the concentration for half-maximal inhibition (IC50) stood at 0.038 µM.

As to `COc1cccc(CN(CCc2ccc(Cl)c(Cl)c2)C[C@H](O)COc2ccc(NS(C)(=O)=O)cc2)c1OC`, the IC50 was found to be 2.79 µM.

Regarding `CS(=O)(=O)Nc1cccc(OC[C@@H](O)CNCCc2ccc(Cl)c(Cl)c2)c1`, the half-maximal inhibitory concentration (IC50) is 0.53 µM. As for `CCCS(=O)(=O)Nc1ccc(OC[C@@H](O)CNCCc2ccc(Cl)c(Cl)c2)cc1`, the IC50 amounted to 6.1 µM. For `CS(=O)(=O)Nc1ccc(OC[C@@H](O)CN(CCc2ccc(Cl)c(Cl)c2)Cc2ccc(F)cc2)cc1`, the IC50 turned out to be 0.275 µM.

As for `CN(CCc1ccc(Cl)c(Cl)c1)C[C@@H](O)COc1ccc(NS(C)(=O)=O)cc1`, the IC50 turned out to be 0.253 µM. Consider `CS(=O)(=O)Nc1ccc(OC[C@@H](O)CN(CCc2ccc(Cl)c(Cl)c2)Cc2cccc(O)c2O)cc1`, for which the concentration for half-maximal inhibition (IC50) turned out to be 1.82 µM. As for `CS(=O)(=O)Nc1ccc(OC[C@@H](O)CNCCc2cccc(Cl)c2)cc1`, the concentration for half-maximal inhibition (IC50) is 0.628 µM.

Regarding `Cc1ccccc1CN(CCc1ccc(Cl)c(Cl)c1)C[C@H](O)COc1ccc(NS(C)(=O)=O)cc1`, the concentration for half-maximal inhibition (IC50) is 5.7 µM. The value for `CS(=O)(=O)Nc1ccccc1OC[C@@H](O)CNCCc1ccc(Cl)c(Cl)c1` was 12 µM; that for `O=[N+]([O-])c1ccc(OC[C@@H](O)CNCCc2ccc(Cl)c(Cl)c2)cc1` was 9.38 µM; that for `CS(=O)(=O)Nc1ccc(OC[C@H](O)CN(CCc2ccc(Cl)c(Cl)c2)Cc2cccc(O)c2)cc1` was 0.409 µM. The value for `O=S(=O)(Nc1ccc(OC[C@@H](O)CNCCc2ccc(Cl)c(Cl)c2)cc1)c1ccccc1` was 1.45 µM. On to `CS(=O)(=O)Nc1ccc(OC[C@H](O)CN(CCc2ccc(Cl)c(Cl)c2)Cc2ccccc2O)cc1`, for which the concentration for half-maximal inhibition (IC50) came to 0.433 µM. The same measure for `CS(=O)(=O)Nc1ccc(OC[C@@H](O)CNCCc2ccc(F)cc2)cc1`: 0.748 µM; for `CS(=O)(=O)Nc1ccc(OC[C@@H](O)CNCCc2ccccc2Cl)cc1`: 0.429 µM. For `CS(=O)(=O)Nc1ccc(OC[C@H](O)CNCCc2ccc(Cl)c(Cl)c2)cc1`, the 50% inhibitory concentration (IC50) is 0.188 µM. With `Cc1ccc(CN(CCc2ccc(Cl)c(Cl)c2)C[C@H](O)COc2ccc(NS(C)(=O)=O)cc2)cc1`, the IC50 is 5.41 µM. The same measure for `CS(=O)(=O)Nc1ccc(OC[C@@H](O)CNCCc2ccccc2F)cc1`: 0.573 µM; for `CCCCN(CCc1ccc(Cl)c(Cl)c1)C[C@@H](O)COc1ccc(NS(C)(=O)=O)cc1`: 1.28 µM. In the case of `CS(=O)(=O)Nc1ccc(OC[C@@H](O)CN(CCc2ccc(Cl)c(Cl)c2)Cc2ccccc2Cl)cc1`, the 50% inhibitory concentration (IC50) was determined as 0.479 µM. With `CS(=O)(=O)Nc1ccc(OC[C@@H](O)CN(CCc2ccc(Cl)c(Cl)c2)Cc2ccccc2)cc1`, the IC50 is 0.177 µM. For the compound `CCS(=O)(=O)Nc1ccc(OC[C@@H](O)CNCCc2ccc(Cl)c(Cl)c2)cc1`, the IC50 was 0.587 µM.

Turning to `O=C(Nc1ccc(OC[C@@H](O)CNCCc2ccc(Cl)c(Cl)c2)cc1)C(Cl)(Cl)Cl`, the 50% inhibitory concentration (IC50) was found to be 10.6 µM. Regarding `CS(=O)(=O)Nc1ccc(OC[C@H](O)CN(CCO)CCc2ccc(Cl)c(Cl)c2)cc1`, the IC50 is 0.173 µM. The value for `CS(=O)(=O)Nc1ccc(OC[C@@H](O)CN(CCc2ccc(Cl)c(Cl)c2)Cc2c(F)c(F)c(F)c(F)c2F)cc1` was 0.524 µM; that for `CS(=O)(=O)Nc1ccc(OC[C@@H](O)CNCCc2ccc([N+](=O)[O-])cc2)cc1` was 1.14 µM; that for `CS(=O)(=O)Nc1ccc(OC[C@@H](O)CN(CCc2ccc(Cl)c(Cl)c2)Cc2c(F)cccc2F)cc1` was 0.281 µM. On to `CS(=O)(=O)Nc1ccc(OC[C@@H](O)CN(CCc2ccc(Cl)c(Cl)c2)Cc2cccnc2)cc1`, for which the IC50 was found to be 0.278 µM. As to `CS(=O)(=O)Nc1ccc(OC[C@@H](O)CNCCc2ccc(Cl)cc2Cl)cc1`, the IC50 is 2.32 µM. `COc1ccccc1CN(CCc1ccc(Cl)c(Cl)c1)C[C@H](O)COc1ccc(NS(C)(=O)=O)cc1`: the 50% inhibitory concentration (IC50) came to 3.86 µM.

In the case of `Cc1cc(OC[C@@H](O)CNCCc2ccc(Cl)c(Cl)c2)ccc1NS(C)(=O)=O`, the 50% inhibitory concentration (IC50) is 0.687 µM. The value for `C[C@H](NC[C@H](O)COc1ccc(NS(C)(=O)=O)cc1)c1cccc2ccccc12` was 5.07 µM; that for `CS(=O)(=O)Nc1ccc(OC[C@@H](O)CN(CCc2ccc(Cl)c(Cl)c2)CCc2ccccc2O)cc1` was 0.755 µM; that for `CS(=O)(=O)Nc1ccc(OC[C@@H](O)CNCCc2cccc(O)c2)cc1` was 4.43 µM. On to `CCCN(CCc1ccc(Cl)c(Cl)c1)C[C@H](O)COc1ccc(NS(C)(=O)=O)cc1`, for which the IC50 was determined as 0.635 µM.
